Test results: ChEMBL document CHEMBL1201862, “PubChem BioAssay data set” (2004)
Active and inactive are the calls of the source.

Columns and labels:
Cytochrome P450 3A4 = Cytochrome P450 3A4 (Homo sapiens, UniProt P08684); conditions: Potency;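 also: confirmatory qHTS run detecting inhibitors and substrates of CYP3A4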
[1] = Luminescence Cell-Based Dose Response HTS to Identify Inhibitors of 5'UTR Stem-Loop Driven Prion Protein mRNA Translation in H4 Neuroglioblastoma Cells. [Related pubchem assays: 1827 (Project Summary), 1813 (Primary HTS)]; format: functional
[2] = luciferase reporter signal suppression in cells – H4 neuroglioma cells, luminescence, dose response (AID 1990); format: functional, cell-based
[3] = alpha-synuclein stem-loop luciferase translation blockers – H4 neuroglioma cells, luminescence, confirmation (AID 1988); format: functional, cell-based
[4] = non-specific 3'UTR reporter inhibition in Clone20-Shn3RL – cell-based, Renilla luciferase, cherry-picked, counter-screen for Shn3 inhibitor project, dose response (AID 624133); format: functional
[5] = loss of viability in HepG2 cells – cell-based, CellTiter-Glo, cherry-picked, cytotoxicity control for Shn3 inhibitor project, dose response (AID 624134); format: functional
[6] = reduction of Shn3 3'UTR-driven luciferase in osteoblasts – cell-based, Clone20 osteoblasts, firefly luciferase, cherry-picked, dose response (AID 624132); format: functional;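 also: firefly luciferase luminescence from reporter carrying the Shn3 3'UTR in osteoblasts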
[7] = molecular target: T1, RNA-binding protein pos-1 (Caenorhabditis elegans, UniProt G5EF15); experiment: disruptors of C. elegans POS-1 RNA interaction – biochemical, fluorescence polarization, dose response (AID 1964);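 also: purified POS-1 fused to maltose binding protein made in E. coli; potency of compounds blocking POS-1 binding to fluorescent RNA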
T1 sequence (G5EF15 whole entry): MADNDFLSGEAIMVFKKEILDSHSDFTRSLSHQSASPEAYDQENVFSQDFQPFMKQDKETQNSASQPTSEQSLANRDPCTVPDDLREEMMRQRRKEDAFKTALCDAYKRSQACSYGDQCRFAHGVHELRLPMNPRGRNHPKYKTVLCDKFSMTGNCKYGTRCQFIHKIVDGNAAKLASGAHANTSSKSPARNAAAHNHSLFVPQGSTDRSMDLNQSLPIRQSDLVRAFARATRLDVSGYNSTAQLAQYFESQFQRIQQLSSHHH

[8] = molecular target: T2, Zinc finger protein mex-5 (Caenorhabditis elegans, UniProt Q9XUB2); experiment: potency of MEX-5 RNA-binding blockers – biochemical, C. elegans, fluorescence polarization, dose response (AID 1960)
T2 sequence (Q9XUB2 whole entry): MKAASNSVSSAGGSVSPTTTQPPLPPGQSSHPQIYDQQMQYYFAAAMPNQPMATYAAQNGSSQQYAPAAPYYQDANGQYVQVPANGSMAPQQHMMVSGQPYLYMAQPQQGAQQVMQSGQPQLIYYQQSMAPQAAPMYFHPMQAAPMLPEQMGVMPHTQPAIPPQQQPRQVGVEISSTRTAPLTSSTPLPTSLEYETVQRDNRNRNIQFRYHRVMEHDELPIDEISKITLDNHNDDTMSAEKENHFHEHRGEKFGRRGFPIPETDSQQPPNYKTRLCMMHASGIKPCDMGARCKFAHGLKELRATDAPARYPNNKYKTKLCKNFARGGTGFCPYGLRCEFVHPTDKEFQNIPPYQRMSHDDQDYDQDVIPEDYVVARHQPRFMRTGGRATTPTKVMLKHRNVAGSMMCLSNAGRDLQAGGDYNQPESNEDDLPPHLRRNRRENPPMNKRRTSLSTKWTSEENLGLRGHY

[9] = NIH-3T3 fibroblast cytotoxicity, dose response, cytotoxicity control, cell-based, fluorescence, Alamar Blue, secondary assay (AID 2327); format: functional;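 also: NIH-3T3 mouse fibroblasts cultured with fluconazole at 8 µg/mL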
[10] = fluconazole-exposed Candida albicans growth modulators – fluorescence, retest, confirmation (AID 2467); format: functional, cell-based
Large T antigen = Large T antigen (Simian virus 40, UniProt P03070); format: functional, Betapolyomavirus macacae;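 also: Confirmatory-stage PubChem screen for compounds that inhibit SV40 T antigen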
INS1 = experiment: INS-1E survival protection against cytokine death – cell-based, luminescence, retest, dose response (AID 449756); format: functional; conditions: Rattus norvegicus;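 also: cell death triggered by IL-1 beta plus TNF-alpha plus IFN-gamma mixture; protective hits raise ATP signal compared with cytokine alone wells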
[11] = microbe, parasite or virus in culture; format: functional; conditions: Mycobacterium tuberculosis
[12] = molecular target: T3, Rac GTPase-activating protein 1 (Homo sapiens, UniProt Q9H0H5); experiment: blockers of MgcRacGAP-driven Rac1 GTP hydrolysis – biochemical, ADP Hunter fluorescence, primary and confirmatory, confirmation (AID 624330); format: functional
T3 sequence (Q9H0H5 whole entry): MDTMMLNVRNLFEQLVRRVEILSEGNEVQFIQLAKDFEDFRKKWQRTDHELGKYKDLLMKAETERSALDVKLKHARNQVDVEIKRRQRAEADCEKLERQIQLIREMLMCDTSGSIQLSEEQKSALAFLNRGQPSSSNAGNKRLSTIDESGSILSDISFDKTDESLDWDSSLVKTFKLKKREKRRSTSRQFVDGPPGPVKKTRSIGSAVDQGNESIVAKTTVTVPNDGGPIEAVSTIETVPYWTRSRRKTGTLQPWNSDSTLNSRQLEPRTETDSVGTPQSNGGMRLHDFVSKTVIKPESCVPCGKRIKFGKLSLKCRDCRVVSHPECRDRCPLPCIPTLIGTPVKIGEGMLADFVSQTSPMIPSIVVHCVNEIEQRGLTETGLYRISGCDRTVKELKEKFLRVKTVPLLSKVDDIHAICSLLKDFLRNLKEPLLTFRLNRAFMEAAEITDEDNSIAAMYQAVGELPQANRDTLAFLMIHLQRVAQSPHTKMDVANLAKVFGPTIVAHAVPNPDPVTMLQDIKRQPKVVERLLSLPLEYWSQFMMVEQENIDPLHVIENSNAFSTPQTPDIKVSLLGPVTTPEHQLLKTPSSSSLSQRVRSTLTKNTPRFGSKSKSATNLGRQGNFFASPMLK

[13] = molecular target: T4, Heat shock factor protein 1 (Mus musculus, UniProt P38532); experiment: decrease of HSF1-responsive luciferase luminescence – cell-based, NIH3T3, dose retest, confirmation (AID 2382); format: functional;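 also: NIH3T3 fibroblasts with HSF1-driven luciferase reporter stressed by proteasome inhibitor MG132; luminescence from HSF1-driven luciferase expression after 8 hours of MG132 stress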
T4 sequence (P38532 whole entry): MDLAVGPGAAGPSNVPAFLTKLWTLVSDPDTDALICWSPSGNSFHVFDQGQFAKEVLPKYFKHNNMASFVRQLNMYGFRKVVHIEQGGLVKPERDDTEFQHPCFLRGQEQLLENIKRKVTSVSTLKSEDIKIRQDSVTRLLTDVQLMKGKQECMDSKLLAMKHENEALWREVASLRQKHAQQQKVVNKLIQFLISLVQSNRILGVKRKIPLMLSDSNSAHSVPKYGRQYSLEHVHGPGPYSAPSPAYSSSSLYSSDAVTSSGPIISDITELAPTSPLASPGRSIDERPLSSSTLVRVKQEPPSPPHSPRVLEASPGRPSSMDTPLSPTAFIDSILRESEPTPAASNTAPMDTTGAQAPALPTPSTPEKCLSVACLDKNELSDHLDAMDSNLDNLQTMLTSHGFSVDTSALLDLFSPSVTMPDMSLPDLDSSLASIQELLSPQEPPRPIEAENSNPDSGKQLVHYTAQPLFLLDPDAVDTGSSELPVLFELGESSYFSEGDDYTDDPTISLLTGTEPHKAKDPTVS

Cytochrome P450 3A4, sequence (P08684 whole entry): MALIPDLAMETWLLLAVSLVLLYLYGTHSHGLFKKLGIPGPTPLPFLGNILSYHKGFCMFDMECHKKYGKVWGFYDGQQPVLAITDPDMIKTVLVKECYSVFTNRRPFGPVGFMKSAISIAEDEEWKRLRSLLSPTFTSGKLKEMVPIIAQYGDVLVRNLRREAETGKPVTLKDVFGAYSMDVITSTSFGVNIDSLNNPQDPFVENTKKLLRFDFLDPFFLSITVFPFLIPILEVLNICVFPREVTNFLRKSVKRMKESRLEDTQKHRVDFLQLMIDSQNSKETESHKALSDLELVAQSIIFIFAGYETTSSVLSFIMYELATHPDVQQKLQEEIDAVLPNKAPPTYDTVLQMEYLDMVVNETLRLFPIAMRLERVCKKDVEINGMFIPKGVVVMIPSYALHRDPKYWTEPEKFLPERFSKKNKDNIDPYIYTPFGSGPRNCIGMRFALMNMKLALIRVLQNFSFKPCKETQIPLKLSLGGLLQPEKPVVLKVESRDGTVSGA
Large T antigen, sequence (P03070 whole entry): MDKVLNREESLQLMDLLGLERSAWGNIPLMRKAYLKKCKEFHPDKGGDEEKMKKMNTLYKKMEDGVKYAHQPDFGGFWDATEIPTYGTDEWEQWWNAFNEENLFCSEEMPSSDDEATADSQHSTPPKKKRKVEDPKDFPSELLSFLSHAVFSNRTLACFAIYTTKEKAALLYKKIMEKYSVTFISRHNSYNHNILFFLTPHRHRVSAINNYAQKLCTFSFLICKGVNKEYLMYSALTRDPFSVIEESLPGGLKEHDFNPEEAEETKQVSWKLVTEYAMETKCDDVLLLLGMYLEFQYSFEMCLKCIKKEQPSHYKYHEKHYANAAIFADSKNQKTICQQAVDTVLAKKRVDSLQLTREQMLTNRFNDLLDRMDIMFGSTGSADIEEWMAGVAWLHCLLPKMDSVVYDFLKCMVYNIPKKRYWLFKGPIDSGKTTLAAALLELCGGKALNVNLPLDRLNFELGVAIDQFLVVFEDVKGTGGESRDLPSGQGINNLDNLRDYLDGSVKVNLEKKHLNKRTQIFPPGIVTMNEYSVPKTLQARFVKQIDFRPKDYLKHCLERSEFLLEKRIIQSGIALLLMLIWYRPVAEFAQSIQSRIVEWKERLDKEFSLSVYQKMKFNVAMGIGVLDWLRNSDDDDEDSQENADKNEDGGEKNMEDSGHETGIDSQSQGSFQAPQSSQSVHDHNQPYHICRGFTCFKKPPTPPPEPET

Q: Which AC50 (Cytochrome P450 3A4) does the source give for `CCCn1c(C)nc2c(NC(C)CCCN(CC)CC)nc(C)nc21` (centres undefined) here?
A: Its AC50 is 25.1 µM (inconclusive).

Q: Which EC50 [1] does the source give for `Cc1ccc(NC(CNS(=O)(=O)c2ccc(Cl)cc2)c2ccccc2)cc1` (centres undefined) here?
A: Its EC50 is 45.4 µM (active).

Q: What about the EC50 [2] of the same compound?
A: The EC50 was > 120 µM (not active).

Q: What about the EC50 [3] of the same compound?
A: The EC50 was 10.3 µM (active).

Q: With `Cc1c(C(=O)Nc2ccc(F)c(F)c2)oc2ccc(S(=O)(=O)N3CCCCC3)cc12` as the compound, how does the AC50 [4] read?
A: Its AC50 is 28 µM (active).

Q: What about the AC50 [5] of the same compound?
A: Its AC50 is > 70 µM (inactive).

Q: What about the AC50 [6] of the same compound?
A: Its AC50 is 7.05 µM (active).

Q: What does the source list for `COc1cc(/C=C2\C(=O)NN(c3ccccc3)C2=O)cc([N+](=O)[O-])c1O`?
A: EC50 [7]: > 300 µM (not active); EC50 [8]: 37.5 µM (active); EC50 [9]: 21.2 µM (inconclusive); EC50 [10]: > 38 µM (not active); IC50 (Large T antigen): > 100 µM (active)

Q: Which EC50 [1] does the source give for `COc1ccccc1-c1nnc(NC(=O)c2ccc(S(=O)(=O)N(C)C)cc2)o1` here?
A: Its EC50 is > 120 µM (not active).

Q: What about the EC50 [2] of the same compound?
A: The EC50 was > 120 µM (not active).

Q: And the EC50 [3]?
A: Its EC50 is > 120 µM (not active).

Q: For `CN1CC(CO)=C[C@H]2c3cccc4[nH]cc(c34)C[C@H]21`, which AC50 (Cytochrome P450 3A4) is on record?
A: The AC50 was 39.8 µM (inconclusive).

Q: For `CCOc1ccc(S(=O)(=O)N(C)c2ccc(OCC(=O)Nc3nc4ccccc4s3)cc2)cc1`, which AC50 [4] is on record?
A: Its AC50 is 4.06 µM (active).

Q: What about the AC50 [5] of the same compound?
A: Its AC50 is 34.6 µM (active).

Q: What about the AC50 (INS1) of the same compound?
A: The AC50 was 7.73 µM (active).

Q: What about the AC50 [6] of the same compound?
A: The AC50 was 2.82 µM (active).

Q: With `CCC1=C(OC(=O)N(CC)CC)N2C(=O)O/C(=N\CCOC)[C@]2(C)[C@H]2C1=CC[C@H]1C(=O)N(C)C(=O)[C@H]12` as the compound, how does the AC50 (Cytochrome P450 3A4) read?
A: Its AC50 is 10 µM (inconclusive).

Q: Which CC50 [11] does the source give for `O=C(Nc1ccc(N2CCOCC2)c(Cl)c1)c1c(F)c(F)c(F)c(F)c1F` here?
A: The CC50 was > 40 µM (active).

Q: For `COC(=O)/C=C/C(=O)Nc1ccc(O)c(Cl)c1`, which IC50 (Large T antigen) is on record?
A: The IC50 was 11.7 µM (active).

Q: Which IC50 (Large T antigen) does the source give for `COc1cc(/C=C/C(=O)OCC(=O)Nc2ccc(S(N)(=O)=O)cc2)ccc1O` here?
A: The IC50 was 20 µM (active).

Q: Which IC50 (Large T antigen) does the source give for `Oc1ccc(Nc2nc(Cl)nc(NCc3ccco3)n2)cc1` here?
A: Its IC50 is 10.7 µM (active).

Q: Which EC50 [1] does the source give for `C=CCn1c(SCc2ccc(C#N)cc2)nnc1-c1cccc(OC)c1` here?
A: The EC50 was 48.7 µM (active).

Q: And the EC50 [2]?
A: Its EC50 is 18.6 µM (active).

Q: What about the EC50 [3] of the same compound?
A: The EC50 was > 120 µM (not active).

Q: Which results are given for `CCN1C(=O)/C(=C/c2c[nH]nc2-c2ccccc2)SC1=S`?
A: EC50 [1]: > 120 µM (not active); EC50 [2]: > 120 µM (not active); EC50 [3]: > 120 µM (not active)

Q: What does the source list for `CCOc1ccc(NCc2cccn2-c2nnc(N3CCC(C(=O)NCCCN4CCCCC4)CC3)s2)cc1`?
A: IC50 [12]: 64.7 µM (active); EC50 [13]: > 195 µM (not active)

Q: With `C=CCOC(=O)C(C(=O)CC)C(NC(=O)OC)c1ccc(F)cc1` (centres undefined) as the compound, how does the AC50 (Cytochrome P450 3A4) read?
A: Its AC50 is 3.16 µM (inconclusive).
